From PMC3433708, “Structural Basis for Specific Recognition of Substrates by Sapovirus Protease” (Frontiers in Microbiology, 2012)

Molecular target: T1, SaV protease (3C-like protease domain of NS6-7, Pro^wt) (Sapovirus Mc10, UniProt Q6XDK8)
T1 construct: gene ORF1; partial ORF1 polyprotein NS6-7-VP1 with functional protease, made by coupled in vitro transcription/translation in rabbit reticulocyte lysate, not purified; protease domain 146 residues; from ORF1 polyprotein of 2278 residues
Experiment: in vitro trans cleavage assay, […]-labelled ORF1 polyprotein (Pro^mut), SDS-PAGE, NS4-NS5 band
Assay type: biochemical

T1 sequence (Q6XDK8 1056-1201): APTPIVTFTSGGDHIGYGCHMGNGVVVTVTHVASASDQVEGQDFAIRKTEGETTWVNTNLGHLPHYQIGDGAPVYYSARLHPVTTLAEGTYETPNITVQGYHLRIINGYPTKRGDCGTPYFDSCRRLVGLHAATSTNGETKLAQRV

SMILES	IC50 [µM]
CN(C)c1ccc(/C=C2\CCCC3C2=NN(C(=O)CCC(=O)O)C3c2ccc(N(C)C)cc2)cc1 (stereo not drawn) [compound 50, Compound No.50]	26.5
Cc1cccc(N2CCN(c3ccc(C(=O)O)cc3NS(=O)(=O)c3cc(C)cc(C)c3)CC2C)c1 (stereo not drawn) [compound 100, Compound No.100]	18.4
Cc1ccc(C)n1C(CC(=O)O)c1ccc(OCc2ccccc2)cc1 (stereo not drawn) [compound 116, Compound No.116]	18.4
